In brackets after ≈: the same amount, converted by molar mass.
Key:
S. aureus = assay: MIC assay, S. aureus; assay type: cell-based, Staphylococcus aureus
S. pneumo. = assay: MIC assay, S. pneumo.; assay type: cell-based, Streptococcus pneumoniae
E coli = assay: MIC assay, E coli; assay type: cell-based
E. faecalis = assay: MIC assay, E. faecalis; assay type: cell-based, Enterococcus faecalis
H. flu = assay type: cell-based, H. influenza

CO[C@H]1/C=C/OC2(C)Oc3c(C)c(O)c4c(=O)c(c5oc6cc(N7CC8CC7CN8)cc(O)c6nc-5c4c3C2=O)NC(=O)/C(C)=C\C=C\[C@H](C)[C@H](O)[C@@H](C)[C@@H](O)[C@@H](C)[C@H](OC(C)=O)[C@@H]1C (stereo partly drawn)
melting point: > 330 °C

CO[C@H]1/C=C/OC2(C)Oc3c(C)c(O)c4c(=O)c(c5oc6cc(N7CC8CCC7CN8)cc(O)c6nc-5c4c3C2=O)NC(=O)/C(C)=C\C=C\[C@H](C)[C@H](O)[C@@H](C)[C@@H](O)[C@@H](C)[C@H](OC(C)=O)[C@@H]1C (stereo partly drawn)
melting point: > 300 °C

COC1C=COC2(C)Oc3c(C)c(O)c4c(=O)c(c5oc6cc(N7CCOCC7)cc(O)c6nc-5c4c3C2=O)NC(=O)C(C)=CC=CC(C)C(O)C(C)C(O)C(C)C(O)C1C (stereo not drawn) [Compound 128]
MIC (μg/mL) S. aureus (S. aureus): 0.004 µg/mL (≈ 0.00474 µM)
MIC (μg/mL) S. pneumo. (S. pneumo.): 0.00025 µg/mL (≈ 0.000296 µM)
MIC (μg/mL) E coli (E coli): >8 µg/mL
MIC (μg/mL) E. faecalis (E. faecalis): 0.06 µg/mL (≈ 0.0711 µM)
MIC (μg/mL) H. flu (H. flu): 0.12 µg/mL (≈ 0.142 µM)

COC1C=COC2(C)Oc3c(C)c(O)c4c(=O)c(c5sc6cc(N7CCOCC7)ccc6nc-5c4c3C2=O)NC(=O)C(C)=CC=CC(C)C(O)C(C)C(O)C(C)C(O)C1C (stereo not drawn) [Compound 129]
MIC (μg/mL) S. aureus (S. aureus): 0.015 µg/mL (≈ 0.0178 µM)
MIC (μg/mL) S. pneumo. (S. pneumo.): 0.001 µg/mL (≈ 0.00118 µM)
MIC (μg/mL) E coli (E coli): 4 µg/mL (≈ 4.74 µM)
MIC (μg/mL) E. faecalis (E. faecalis): 0.5 µg/mL (≈ 0.592 µM)
MIC (μg/mL) H. flu (H. flu): 0.06 µg/mL (≈ 0.0711 µM)

CO[C@H]1/C=C/O[C@@]2(C)Oc3c(C)c(O)c4c(=O)c(c5n(C)c6ccccc6nc-5c4c3C2=O)NC(=O)/C(C)=C\C=C\[C@H](C)[C@H](O)[C@@H](C)[C@@H](O)[C@@H](C)[C@H](O)[C@@H]1C [Compound 131]
MIC (μg/mL) S. aureus (S. aureus): 0.5 µg/mL (≈ 0.661 µM)
MIC (μg/mL) S. pneumo. (S. pneumo.): 0.5 µg/mL (≈ 0.661 µM)
MIC (μg/mL) E coli (E coli): 8 µg/mL (≈ 10.6 µM)
MIC (μg/mL) E. faecalis (E. faecalis): 2 µg/mL (≈ 2.65 µM)
MIC (μg/mL) H. flu (H. flu): 2 µg/mL (≈ 2.65 µM)

C=CCc1cc(C)cc2nc3c4c5c6c(C)c(O)c4c(=O)c(c-3oc12)NC(=O)C(C)=CC=CC(C)C(O)C(C)C(O)C(C)C(O)C(C)C(OC)C=COC(C)(O6)C5=O (stereo not drawn) [Compound 132]
MIC (μg/mL) S. aureus (S. aureus): 0.06 µg/mL (≈ 0.0753 µM)
MIC (μg/mL) S. pneumo. (S. pneumo.): 0.03 µg/mL (≈ 0.0376 µM)
MIC (μg/mL) E coli (E coli): >8 µg/mL
MIC (μg/mL) E. faecalis (E. faecalis): 2 µg/mL (≈ 2.51 µM)
MIC (μg/mL) H. flu (H. flu): 0.5 µg/mL (≈ 0.627 µM)

CO[C@H]1/C=C/O[C@@]2(C)Oc3c(C)c(O)c4c(=O)c(c5oc6cccc(O)c6nc-5c4c3C2=O)NC(=O)/C(C)=C\C=C\[C@H](C)[C@H](O)[C@@H](C)[C@@H](O)[C@@H](C)[C@H](O)[C@@H]1C [Compound 133]
MIC (μg/mL) S. aureus (S. aureus): 0.004 µg/mL (≈ 0.00527 µM)
MIC (μg/mL) S. pneumo. (S. pneumo.): 0.002 µg/mL (≈ 0.00264 µM)
MIC (μg/mL) E coli (E coli): 8 µg/mL (≈ 10.5 µM)
MIC (μg/mL) E. faecalis (E. faecalis): 0.12 µg/mL (≈ 0.158 µM)
MIC (μg/mL) H. flu (H. flu): 0.25 µg/mL (≈ 0.329 µM)

Source: patent publication US7271165B2, “Rifamycin analogs and uses thereof” (priority 2003, dated 2007)
